According to patent publication US12352767B2, “Method of treating cognitive decline associated with neurological diseases based on a decrease in FLT4 expression or activity” (University of Virginia Patent Foundation, priority 2018, dated 2025):

System: Ly6GnegCD45+CD11b+ brain myeloid cells
Test: Single cell RNA-seq of brain myeloid cells (microglia) of WT and 5xFAD mice (Table 6, Table 7)
Type: in vivo
Parameters: key to Rel. Expr. 5xFAD Vis. + photo: HS-Q7 / Rel. Expr. 5xFAD Vis. + photo: Axl / Rel. Expr. 5xFAD Vis.: Ctdnep1 / Rel. Expr. 5xFAD Vis. + photo: Ctdnep1 / Rel. Expr. 5xFAD Vis.: Fabp5 / Rel. Expr. 5xFAD Vis. + photo: Fabp5 / Rel. Expr. 5xFAD Vis.: Nampt / Rel. Expr. 5xFAD Vis. + photo: Nampt / Rel. Expr. 5xFAD Vis. + photo: Tfdp1 / Rel. Expr. 5xFAD Vis. + photo: Hspb11 / Rel. Expr. 5xFAD Vis.: Tyrobp / Rel. Expr. 5xFAD Vis. + photo: Tyrobp / Rel. Expr. 5xFAD Vis. + photo: Tpt1 / Rel. Expr. 5xFAD Vis.: Fth1 / Rel. Expr. 5xFAD Vis. + photo: Fth1 / Rel. Expr. 5xFAD Vis. + photo: Eef1a1 / Rel. Expr. 5xFAD Vis.: Lgals3bp / Rel. Expr. 5xFAD Vis. + photo: Lgals3bp / Rel. Expr. 5xFAD Vis.: Ifitm3 / Rel. Expr. 5xFAD Vis. + photo: Ifitm3 / Rel. Expr. 5xFAD Vis.: Atp5h / Rel. Expr. 5xFAD Vis. + photo: Atp5h / Rel. Expr. 5xFAD Vis.: Fau / Rel. Expr. 5xFAD Vis. + photo: Fau / Rel. Expr. 5xFAD Vis.: Ftl1 / Rel. Expr. 5xFAD Vis. + photo: Ftl1 / Rel. Expr. 5xFAD Vis.: H2-K1 / Rel. Expr. 5xFAD Vis. + photo: H2-K1 / Rel. Expr. 5xFAD Vis. + photo: Tmsb4x / Rel. Expr. 5xFAD Vis. + photo: Uba52 / Rel. Expr. WT Vis.: Hexb / Rel. Expr. 5xFAD Vis.: Hexb / Rel. Expr. WT Vis.: Lgmn / Rel. Expr. 5xFAD Vis.: Lgmn / Rel. Expr. 5xFAD Vis. + photo: Rtp4 / Rel. Expr. 5xFAD Vis.: Lpl / Rel. Expr. 5xFAD Vis. + photo: Lpl: A “+” refers to relative upregulation of gene expression for the noted conditions; A “-” refers to relative downregulation of gene expression for the noted conditions
Method: Effects of meningeal ablation on gene expression were studied in 5×FAD mice. Single cell RNA-seq of brain myeloid cells from 4 months old wild type (WT) and 5×FAD mice were injected with Visudyne alone (Vis., functional meningeal lymphatics) or injected with Visudyne and subjected to transcranial photoconversion (Vis.+photo., ablated meningeal lymphatics). Meningeal lymphatic ablation step was performed twice within a span of 3 weeks and brain myeloid cells were isolated 3 weeks after the last step. Data were obtained from sorted live Ly6G^negCD45^+CD11b^+ brain myeloid cells pooled from 3 mice per group (FIGS. 14A-B). Unsupervised clustering of brain myeloid single cells using t-distributed Stochastic Neighbor Embedding (t-SNE) plotted by group (FIG. 14A) or by distinct cell cluster (FIG. 14B). Frequency of cells from each cluster within the total 354, 487 and 308 cells from WT Vis., 5×FAD Vis. and 5×FAD Vis.+photo. groups, respectively (FIG. 14C). Genes involved in the acquisition of the disease-associated microglia phenotype, depicting the homeostatic, TREM2-independent and TREM2-dependent signatures within each cell were depicted in a heatmap (FIG. 14D). Cells are grouped by cluster and genes are grouped by signature (FIG. 14D). Upset plots were generated for all cells (FIG. 14E) or cluster 1 cells (FIG. 14F) showing the overlap in differentially expressed genes for comparisons between 5×FAD Vis. or 5×FAD Vis.+photo. and WT Vis. […] Expression values are averaged across cells within each group. Normalized enrichment score for GSEA pathways were obtained by Fisher's exact test with Benjamini-Hochberg corrections for the 24 differentially expressed genes in cluster 1 is shown in FIG. 14H. Enrichment analysis was performed in R using the clusterProfiler package. Depicted in FIG. 14I is a heatmap showing the mean-centered average log normalized expression of each gene contributing to the core-enrichment of the “Lysosome” GSEA pathway. Expression values are averaged across cells within each group. All scales show mean-centered, log-normalized expression values.

[1] = 5xFAD mice, Visudyne + photoconversion, cluster 1 brain myeloid cells
[2] = 5xFAD mice, Visudyne alone, cluster 1 brain myeloid cells
[3] = WT mice, Visudyne alone, cluster 1 brain myeloid cells

verteporfin [Visudyne]
+: Rel. Expr. 5xFAD Vis. + photo: Atp5h [1] | Rel. Expr. 5xFAD Vis. + photo: Axl [1] | Rel. Expr. 5xFAD Vis. + photo: Ctdnep1 [1] | Rel. Expr. 5xFAD Vis. + photo: Eef1a1 [1] | Rel. Expr. 5xFAD Vis. + photo: Fabp5 [1] | Rel. Expr. 5xFAD Vis. + photo: Fau [1] | Rel. Expr. 5xFAD Vis. + photo: Fth1 [1] | Rel. Expr. 5xFAD Vis. + photo: Ftl1 [1] | Rel. Expr. 5xFAD Vis. + photo: H2-K1 [1] | Rel. Expr. 5xFAD Vis. + photo: HS-Q7 [1] | Rel. Expr. 5xFAD Vis. + photo: Hspb11 [1] | Rel. Expr. 5xFAD Vis. + photo: Ifitm3 [1] | Rel. Expr. 5xFAD Vis. + photo: Lgals3bp [1] | Rel. Expr. 5xFAD Vis. + photo: Lpl [1] | Rel. Expr. 5xFAD Vis. + photo: Nampt [1] | Rel. Expr. 5xFAD Vis. + photo: Rtp4 [1] | Rel. Expr. 5xFAD Vis. + photo: Tfdp1 [1] | Rel. Expr. 5xFAD Vis. + photo: Tmsb4x [1] | Rel. Expr. 5xFAD Vis. + photo: Tpt1 [1] | Rel. Expr. 5xFAD Vis. + photo: Tyrobp [1] | Rel. Expr. 5xFAD Vis. + photo: Uba52 [1] | Rel. Expr. 5xFAD Vis.: Atp5h [2] | Rel. Expr. 5xFAD Vis.: Ctdnep1 [2] | Rel. Expr. 5xFAD Vis.: Fabp5 [2] | Rel. Expr. 5xFAD Vis.: Fau [2] | Rel. Expr. 5xFAD Vis.: Fth1 [2] | Rel. Expr. 5xFAD Vis.: Ftl1 [2] | Rel. Expr. 5xFAD Vis.: H2-K1 [2] | Rel. Expr. 5xFAD Vis.: Hexb [2] | Rel. Expr. 5xFAD Vis.: Ifitm3 [2] | Rel. Expr. 5xFAD Vis.: Lgals3bp [2] | Rel. Expr. 5xFAD Vis.: Lgmn [2] | Rel. Expr. 5xFAD Vis.: Lpl [2] | Rel. Expr. 5xFAD Vis.: Nampt [2] | Rel. Expr. 5xFAD Vis.: Tyrobp [2] | Rel. Expr. WT Vis.: Hexb [3] | Rel. Expr. WT Vis.: Lgmn [3]
significantly different: expression of 24 genes (Table 6) in cluster 1 brain myeloid cells, 5xFAD Vis.+photo. vs WT Vis. (Visudyne + photoconversion twice within 3 weeks)
relatively downregulated: expression of genes of the GSEA lysosome pathway (Table 7, FIG. 14I) (5xFAD mice, Visudyne with photo ablation, brain myeloid cells)
not significantly different: expression of 24 genes (Table 6) in cluster 1 brain myeloid cells, 5xFAD Vis. vs WT Vis. (Visudyne alone, no photoconversion)
